Measurements as given in ChEMBL document CHEMBL5149986, “Spliceostatins and Derivatives: Chemical Syntheses and Biological Properties of Potent Splicing Inhibitors” (J Nat Prod, 2021).

Tests used:
MES-SA/Dx5 = assay: Cytotoxicity against human MES-SA/Dx5 cells assessed as inhibition in cell growth; assay type: functional, cell-based
MES-SA = assay: Cytotoxicity against human MES-SA cells assessed as inhibition in cell growth; assay type: functional, cell-based
[1] = Cytotoxicity against HEK293T cells assessed as inhibition in cell growth; assay type: toxicity, cell-based, HEK-293T; conditions: human

Row | SMILES | IC50 (MES-SA/Dx5) | IC50 (MES-SA) | IC50 [1]
1 | CC(/C=C/[C@H]1O[C@H](C)C[C@@]2(CO2)[C@@H]1O)=C\C[C@@H]1O[C@H](C)[C@H](NC(=O)/C=C\[C@H](C)OC(=O)N2CCOCC2)C[C@@H]1C | 1.48 nM | 0.38 nM | 0.08 nM
2 | CC(/C=C/[C@H]1O[C@H](C)C[C@@]2(CO2)[C@@H]1O)=C\C[C@@H]1O[C@H](C)[C@H](NC(=O)/C=C\[C@H](C)OC(=O)N(C)C)C[C@@H]1C | 0.14 nM | 0.04 nM | 0.003 nM
3 | CO[C@@H]1C[C@@]2(CO2)[C@H](O)[C@@H](/C=C/C(C)=C/C[C@@H]2O[C@H](C)[C@H](NC(=O)/C=C\[C@H](C)OC(=O)N(C)C)C[C@@H]2C)O1 | 2.01 nM | 1.08 nM | 0.09 nM
4 | CC(/C=C/[C@H]1O[C@H](CC(=O)O)C[C@@](O)(CCl)[C@@H]1O)=C\C[C@@H]1O[C@H](C)[C@H](NC(=O)/C=C\[C@H](C)OC(=O)C(C)C)C[C@@H]1C [THAILANSTATIN C] | 298 nM | 137 nM | 64.7 nM
5 | CCOC(=O)/C=C/C[C@@H]1C[C@@]2(CO2)[C@H](O)[C@@H](/C=C/C(C)=C/C[C@@H]2O[C@H](C)[C@H](NC(=O)/C=C\[C@H](C)OC(=O)C(C)C)C[C@@H]2C)O1 | 2.73 nM | 2.96 nM | 0.09 nM
6 | CO[C@@H]1C[C@@]2(CN2)[C@H](O)[C@@H](/C=C/C(C)=C/C[C@@H]2O[C@H](C)[C@H](NC(=O)/C=C\[C@H](C)OC(C)=O)C[C@@H]2C)O1 | 210 nM | 0.6 nM | 0.144 nM
7 | CNC(=O)O[C@@H]1[C@@H](/C=C/C(C)=C/C[C@@H]2O[C@H](C)[C@H](NC(=O)/C=C\[C@H](C)OC(C)=O)C[C@@H]2C)O[C@H](OC)C[C@@]12CO2 | 76.1 nM | 76.7 nM | 10.1 nM
8 | CC(/C=C/[C@H]1O[C@H](C)C[C@@]2(CO2)[C@@H]1O)=C\C[C@@H]1O[C@H](C)[C@H](NC(=O)/C=C\[C@H](C)OC(=O)N2CCCCC2)C[C@@H]1C | 0.57 nM | 0.5 nM | 0.07 nM
9 | C=C1C[C@@H](CC(=O)O)O[C@H](/C=C/C(C)=C/C[C@@H]2O[C@H](C)[C@H](NC(=O)/C=C\[C@H](C)OC(C)=O)C[C@@H]2C)[C@H]1O | > 1000 nM | > 1000 nM | > 1000 nM
10 | CC(/C=C/[C@H]1O[C@H](C)C[C@@]2(CO2)[C@@H]1O)=C\C[C@@H]1O[C@H](C)[C@H](NC(=O)/C=C\[C@H](C)NC(=O)N(C)C)C[C@@H]1C | > 16 nM | 1.97 nM | 0.28 nM
11 | CC(=O)O[C@H]1C(=O)[C@@]2(C)[C@H]([C@H](OC(=O)c3ccccc3)[C@]3(O)C[C@H](OC(=O)[C@H](O)[C@@H](NC(=O)c4ccccc4)c4ccccc4)C(C)=C1C3(C)C)[C@]1(OC(C)=O)CO[C@@H]1C[C@@H]2O [PACLITAXEL] | > 400 nM | 2.47 nM | 1.76 nM
12 | CC(=O)O[C@@H](C)/C=C\C(=O)N[C@@H]1C[C@H](C)[C@H](C/C=C(C)/C=C/[C@H]2O[C@H](CC(=O)O)C[C@@](O)(CCl)[C@@H]2O)O[C@@H]1C [THAILANSTATIN B] | > 1000 nM | 856 nM | 194 nM
13 | CC(/C=C/[C@H]1O[C@H](C)C[C@@]2(CO2)[C@@H]1O)=C\C[C@@H]1O[C@H](C)[C@H](NC(=O)/C=C\[C@H](C)NC(=O)N2CCCCC2)C[C@@H]1C | 64 nM | 3.19 nM | 0.041 nM
14 | CC(/C=C/[C@H]1O[C@H](CC(=O)OC(C)(C)C)C[C@@](O)(CCl)[C@@H]1O)=C\C[C@@H]1O[C@H](C)[C@H](NC(=O)/C=C\[C@H](C)OC(=O)C(C)C)C[C@@H]1C | 10.3 nM | 264 nM | 0.13 nM
15 | CC(=O)O[C@@H](C)/C=C\C(=O)N[C@@H]1C[C@H](C)[C@H](C/C=C(C)/C=C/[C@H]2O[C@H](CC(C)(C)O)C[C@@]3(CO3)[C@@H]2O)O[C@@H]1C | 2.96 nM | 0.64 nM | 0.08 nM
16 | CC(=O)O[C@@H](C)/C=C\C(=O)N[C@@H]1C[C@H](C)[C@H](C/C=C(C)/C=C/[C@H]2O[C@H](CCC#N)C[C@@]3(CO3)[C@@H]2O)O[C@@H]1C | 2.6 nM | 0.82 nM | 0.099 nM
